From patent publication US20170209544A1, “A PEPTIDE THERAPY TO COUNTERACT INSULIN RESISTANCE AND TYPE 2 DIABETES” (The Regents of the University of California, priority 2014, published 2017)
Where no end group is shown, it is not given here.

Assays:
Heart function = settings: in vivo
peritoneal macrophages = assay: qPCR of inflammatory genes in cultured peritoneal macrophages; format: cell-based, mice; settings: LPS 100 ng/ml, 4 hr; both WT and Chga-KO macrophages
Protocol: Peritoneal macrophages were isolated after thioglycollate (3% solution in water) stimulation as described. Isolated macrophages were cultured in DMEM with 10% FBS for 48 hours with daily medium changes. Cells were then serum-starved overnight in DMEM with low FBS (0.5%) and then exposed to saline, PST (100 nM), or LPS (100 ng/ml) for 4 hours. At the end of incubation, the cultures were subjected to RNA extraction.
RNA from tissues was extracted using a kit (RNeasy Plus, Qiagen, Valencia, Calif.). After DNase digestion, 200 ng of RNA was transcribed into cDNA in a 20-μl reaction using a High Capacity cDNA Archive kit and this cDNA was amplified. PCR (25-μl reactions) contained 5 μl of cDNA, 2×SYBR Green PCR Master Mix, and 400 nM of each primer. Differences in the threshold cycle number (ΔCt) between the target gene, the housekeeping gene Gapdh and the ribosomal protein gene 36B4 were used to calculate differences in expression. Primer sequences are provided below.
As shown in FIGS. 18A-18H, PST promotes macrophage inflammation and chemotaxis. Peritoneal macrophages were isolated from WT-NCD and KO-NCD after thioglycollate injection. After 4-hr exposure to saline, LPS (100 ng/ml) or PST (100 nM), RNAs were extracted and cDNAs were prepared for qPCR analyses of Chga (FIG. 18A, n=8), iNos (FIG. 18B, n=8), Tnfα (FIG. 18C, n=8), Mcp-1 (FIG. 18D, n=8), IL-6 (FIG. 18E, n=8), IL-12p40 (FIG. 18F, n=8) and iNos genes (FIG. 18G, n=8). (FIG. 18H) Effects of PST on chemotaxis of activated macrophages from NCD-fed C57BL/6J mice (n=5). “*” Denotes comparison between the indicated groups. “*”: P<0.05, “**”: p<0.01, “***”: p<0.001.

Substance	effects on heart function (Heart function)	expression of iNos (peritoneal macrophages) [fold]
KGEQEHSQQKEEEEEMAVVPQGLFRG-NH2 [PSTv1]	no adverse effects on heart function	–
lipopolysaccharide [LPS]	–	~100
